Laboratory results reported in patent US10233182B2, “Substituted spirocyclic inhibitors of autotaxin” (X-Rx, Inc., priority 2014, dated 2019).
pIC50: −log10 of the molar value.

target: Autotaxin (Homo sapiens (Human), UniProt Q13822); test: Autotaxin LPC Cascade Assay; assay type: biochemical; details: Autotaxin 5 nM, LPC 100 μM, choline oxidase/HRP/Ampliflu Red fluorescence read-out, 2% DMSO, RT; read-out: IC50 ATX Activity
In short: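 Choline liberated from LPC by autotaxin during 1 h, after a 10-min RT compound preincubation, was converted through choline oxidase/HRP to a fluorescent Ampliflu Red product.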

Structure (SMILES)	pIC50
Cc1cccc(C(=O)N[C@@H](C(=O)N2CCC3(CC2)C(=O)N(CCCS(C)(=O)=O)CN3c2ccccc2)C(C)C)c1F [Example 177, (R)-2-Fluoro-3-methyl-N-(3-methyl-1-(3-(3-(methylsulfonyl)propyl)-4-oxo-1-phenyl-1,3,8-triazaspiro[4.5]decan-8-yl)-1-oxobutan-2-yl)benzamide]	> 6.30
CCc1ccc(F)c(C(=O)N[C@@H](C(=O)N2CCC3(CC2)C(=O)N(CC#N)CN3c2ccccc2)C(C)C)c1 [Example 178, (R)—N-(1-(3-(Cyanomethyl)-4-oxo-1-phenyl-1,3,8-triazaspiro[4.5]decan-8-yl)-3-methyl-1-oxobutan-2-yl)-5-ethyl-2-fluorobenzamide]	> 6.30
Cc1cccc(C(=O)N[C@@H](C(=O)N2CCC3(CC2)C(=O)N(C)CN3c2ccc(C#N)cc2)C(C)C)c1F [Example 179, (R)—N-(1-(1-(4-Cyanophenyl)-3-methyl-4-oxo-1,3,8-triazaspiro[4.5]decan-8-yl)-3-methyl-1-oxobutan-2-yl)-2-fluoro-3-methylbenzamide]	> 6.30
CC(C)[C@@H](NC(=O)c1cc(C(F)(F)F)ccc1F)C(=O)N1CCC2(CC1)C(=O)N(C)C(=O)N2c1ccc(Cl)cc1 [Example 181, (R)—N-(1-(1-(4-Chlorophenyl)-3-methyl-2,4-dioxo-1,3,8-triazaspiro[4.5]decan-8-yl)-3-methyl-1-oxobutan-2-yl)-2-fluoro-5-(trifluoromethyl)benzamide]	> 6.30
CC(C)[C@@H](NC(=O)c1cc(C(F)(F)F)ccc1F)C(=O)N1CCC2(CC1)C(=O)N(C)C(=O)N2c1ccc(F)cc1 [Example 182, (R)-2-Fluoro-N-(1-(1-(4-fluorophenyl)-3-methyl-2,4-dioxo-1,3,8-triazaspiro[4.5]decan-8-yl)-3-methyl-1-oxobutan-2-yl)-5-(trifluoromethyl)benzamide]	> 6.30
CC(C)[C@@H](NC(=O)c1cc(C(F)(F)F)ccc1F)C(=O)N1CCC2(CC1)C(=O)N(C)C(=O)N2c1ccc(Cl)c(Cl)c1 [Example 183, (R)—N-(1-(1-(3,4-Dichlorophenyl)-3-methyl-2,4-dioxo-1,3,8-triazaspiro[4.5]decan-8-yl)-3-methyl-1-oxobutan-2-yl)-2-fluoro-5-(trifluoromethyl)benzamide]	> 6.30
Cc1ccc(N2C(=O)N(C)C(=O)C23CCN(C(=O)[C@H](NC(=O)c2cc(C(F)(F)F)ccc2F)C(C)C)CC3)cc1 [Example 184, (R)-2-Fluoro-N-(3-methyl-1-(3-methyl-2,4-dioxo-1-p-tolyl-1,3,8-triazaspiro[4.5]decan-8-yl)-1-oxobutan-2-yl)-5-(trifluoromethyl)benzamide]	> 6.30
CC(C)[C@@H](NC(=O)c1cc(C(F)(F)F)ccc1F)C(=O)N1CCC2(CC1)C(=O)N(C)C(=O)N2c1ccc2[nH]ccc2c1 [Example 185, (R)—N-(1-(1-(1H-Indol-5-yl)-3-methyl-2,4-dioxo-1,3,8-triazaspiro[4.5]decan-8-yl)-3-methyl-1-oxobutan-2-yl)-2-fluoro-5-(trifluoromethyl)benzamide]	> 6.30
CC(C)[C@@H](NC(=O)c1cc(C(F)(F)F)ccc1F)C(=O)N1CCC2(CC1)C(=O)N(C)C(=O)N2c1ccc(C(F)(F)F)cc1 [Example 186, (R)-2-Fluoro-N-(3-methy-1-(3-methyl-2,4-dioxo-1-(4-(trifluoromethyl)phenyl)-1,3,8-triazaspiro[4.5]decan-8-yl)-1-oxobutan-2-yl)-5-(trifluoromethyl)benzamide]	> 6.30
CC(C)[C@@H](NC(=O)c1cc(C(F)(F)F)ccc1F)C(=O)N1CCC2(CC1)C(=O)N(C)C(=O)N2c1cccc(Cl)c1 [Example 187, (R)—N-(1-(1-(3-Chlorophenyl)-3-methyl-2,4-dioxo-1,3,8-triazaspiro[4.5]decan-8-yl)-3-methyl-1-oxobutan-2-yl)-2-fluoro-5-(trifluoromethyl)benzamide]	> 6.30
CC(C)[C@@H](NC(=O)c1cc(C(F)(F)F)ccc1F)C(=O)N1CCC2(CC1)C(=O)N(C)C(=O)N2c1ccccn1 [Example 188, (R)-2-Fluoro-N-(3-methyl-1-(3-methyl-2,4-dioxo-1-(pyridin-2-yl)-1,3,8-triaza-spiro[4.5]decan-8-yl)-1-oxobutan-2-yl)-5-(trifluoromethyl)benzamide]	6.00 to 6.30
CC(C)[C@@H](NC(=O)c1cc(C(F)(F)F)ccc1F)C(=O)N1CCC2(CC1)C(=O)N(C)C(=O)N2c1cccnc1 [Example 189, (R)-2-Fluoro-N-(3-methyl-1-(3-methyl-2,4-dioxo-1-(pyridin-3-yl)-1,3,8-triaza-spiro[4.5]decan-8-yl)-1-oxobutan-2-yl)-5-(trifluoromethyl)benzamide]	6.00 to 6.30
[2H]c1ccc(N2C(=O)N(C)C(=O)C23CCN(C(=O)[C@H](NC(=O)c2cc(C(F)(F)F)ccc2F)C(C)C)CC3)cc1 [Example 190]	> 6.30
CC(C)[C@@H](NC(=O)c1cc(C(F)(F)F)ccc1F)C(=O)N1CCC2(CC1)C(=O)N(C)C(=O)N2c1ccc2c(c1)OCO2 [Example 191, (R)—N-(1-(1-(Benzo[d][1,3]dioxol-5-yl)-3-methyl-2,4-dioxo-1,3,8-triazaspiro[4.5]decan-8-yl)-3-methyl-1-oxobutan-2-yl)-2-fluoro-5-(trifluoromethyl)benzamide]	> 6.30
Cc1cccc(C(=O)N[C@@H](C(=O)N2CCC3(CC2)C(=O)N(C)CN3c2cccc(Cl)c2)C(C)C)c1 [Example 192, (R)—N-(1-(1-(3-Chlorophenyl)-3-methyl-4-oxo-1,3,8-triazaspiro[4.5]decan-8-yl)-3-methyl-1-oxobutan-2-yl)-3-methylbenzamide]	> 6.30
Cc1cccc(C(=O)N[C@@H](C(=O)N2CCC3(CC2)C(=O)N(C)CN3c2ccc(Cl)cc2)C(C)C)c1 [Example 193, (R)—N-(1-(1-(4-Chlorophenyl)-3-methyl-4-oxo-1,3,8-triazaspiro[4.5]decan-8-yl)-3-methyl-1-oxobutan-2-yl)-3-methylbenzamide]	> 6.30
Cc1cccc(C(=O)N[C@@H](C(=O)N2CCC3(CC2)C(=O)N(C)CN3c2cccc(Br)c2)C(C)C)c1 [Example 194, (R)—N-(1-(1-(3-Bromophenyl)-3-methyl-4-oxo-1,3,8-triazaspiro[4.5]decan-8-yl)-3-methyl-1-oxobutan-2-yl)-3-methylbenzamide]	> 6.30
Cc1cccc(C(=O)N[C@@H](C(=O)N2CCC3(CC2)C(=O)N(C)CN3c2cccnc2)C(C)C)c1 [Example 195, (R)-3-Methyl-N-(3-methyl-1-(3-methyl-4-oxo-1-(pyridin-3-yl)-1,3,8-triazaspiro[4.5]decan-8-yl)-1-oxobutan-2-yl)benzamide]	≤ 6.00
Cc1cccc(C(=O)N[C@@H](C(=O)N2CCC3(CC2)C(=O)N(C)CN3c2ccccc2Cl)C(C)C)c1 [Example 196, (R)—N-(1-(1-(2-Chlorophenyl)-3-methyl-4-oxo-1,3,8-triazaspiro[4.5]decan-8-yl)-3-methyl-1-oxobutan-2-yl)-3-methylbenzamide]	> 6.30
COc1ccc(N2CN(C)C(=O)C23CCN(C(=O)[C@H](NC(=O)c2cccc(C)c2)C(C)C)CC3)cc1 [Example 197, (R)—N-(1-(1-(4-Methoxyphenyl)-3-methyl-4-oxo-1,3,8-triazaspiro[4.5]decan-8-yl)-3-methyl-1-oxobutan-2-yl)-3-methylbenzamide]	> 6.30
COc1cccc(N2CN(C)C(=O)C23CCN(C(=O)[C@H](NC(=O)c2cccc(C)c2)C(C)C)CC3)c1 [Example 198, (R)—N-(1-(1-(3-Methoxyphenyl)-3-methyl-4-oxo-1,3,8-triazaspiro[4.5]decan-8-yl)-3-methyl-1-oxobutan-2-yl)-3-methylbenzamide]	> 6.30
Cc1cccc(C(=O)N[C@@H](C(=O)N2CCC3(CC2)C(=O)N(C)CN3c2ccc(Br)cc2)C(C)C)c1 [Example 199, (R)—N-(1-(1-(4-Bromophenyl)-3-methyl-4-oxo-1,3,8-triazaspiro[4.5]decan-8-yl)-3-methyl-1-oxobutan-2-yl)-3-methylbenzamide]	> 6.30
CCc1ccc(F)c(C(=O)N[C@@H](C(=O)N2CCC3(CC2)C(=O)N(C)CN3c2ccc(S(C)(=O)=O)cc2)C(C)C)c1 [Example 200, (R)-5-Ethyl-2-fluoro-N-(3-methyl-1-(3-methyl-1-(4-(methylsulfonyl)phenyl)-4-oxo-1,3,8-triazaspiro[4.5]decan-8-yl)-1-oxobutan-2-yl)benzamide]	> 6.30
CCc1ccc(F)c(C(=O)N[C@@H](C(=O)N2CCC3(CC2)C(=O)N(C)CN3c2ccc(=O)n(C)c2)C(C)C)c1 [Example 201, (R)-5-Ethyl-2-fluoro-N-(3-methyl-1-(3-methyl-1-(1-methyl-6-oxo-1,6-dihydropyridin-3-yl)-4-oxo-1,3,8-triazaspiro[4.5]decan-8-yl)-1-oxobutan-2-yl)benzamide]	> 6.30
CCc1ccc(F)c(C(=O)N[C@@H](C(=O)N2CCC3(CC2)C(=O)N(C)CN3c2ccc(OC)cc2)C(C)C)c1 [Example 202, (R)-5-Ethyl-2-fluoro-N-(1-(1-(4-methoxyphenyl)-3-methyl-4-oxo-1,3,8-triazaspiro[4.5]decan-8-yl)-3-methyl-1-oxobutan-2-yl)benzamide]	> 6.30
CCc1ccc(F)c(C(=O)N[C@@H](C(=O)N2CCC3(CC2)C(=O)N(C)CN3c2ccc3oc(=O)n(C)c3c2)C(C)C)c1 [Example 203, (R)-5-Ethyl-2-fluoro-N-(3-methyl-1-(3-methyl-1-(3-methyl-2-oxo-2,3-dihydrobenzo[d]oxazol-5-yl)-4-oxo-1,3,8-triazaspiro[4.5]decan-8-yl)-1-oxobutan-2-yl)benzamide]	> 6.30
CC(C)[C@@H](NC(=O)c1cc(C(F)(F)F)ccc1F)C(=O)N1CCC2(CC1)C(=O)N(C)CN2c1ccc(=O)n(C)c1 [Example 204, (R)-2-Fluoro-N-(3-methyl-1-(3-methyl-1-(1-methyl-6-oxo-1,6-dihydropyridin-3-yl)-4-oxo-1,3,8-triazaspiro[4.5]decan-8-yl)-1-oxobutan-2-yl)-5-(trifluoromethyl)benzamide]	> 6.30
